Like-named read-outs stand apart in the source and are kept apart here.
How the values were obtained:
[1] = implicit solvent model, values received; cited from earlier work
[2] = Free energy of hydration by COSMO implicit solvent model (MolPro ver. 2012); details: absolute error vs Exp (hydration)
Outline: (§1)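 COSMO solvation free energies were calculated for the molecule set with MolPro because no original-COSMO free energy data were available. SMD and PCM hydration free energies were obtained as received. SMD, PCM and COSMO-RS values cover only molecules that overlap with those computed using the QM-parameterized force field model.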

[3] = Free energy of hydration predicted by polarizable AMOEBA force field, from literature; details: Table 5; error of AMOEBA hydration free energy vs experiment
[4] = Free energy of hydration by Polarizable Continuum Model (PCM); details: absolute error vs Exp (hydration)
Outline: as §1

[5] = Free energy of hydration predicted by General Amber Force Field (GAFF), from literature; details: Table 5; error of GAFF hydration free energy vs experiment
[6] = Free energy of hydration predicted with the QM-parameterized force field model (ARROW FF), classical MD and PIMD simulation in a water box; details: for water Arrow MD Error / water Arrow PIMD8 Error: Table 3; for water Arrow MD Error: absolute error of MD hydration free energy vs experiment; for water Arrow PIMD8 Error: absolute error of PIMD8 hydration free energy vs experiment; for Arrow error: Table 5, error of Arrow PIMD8 hydration free energy vs experiment; for Arrow PIMD8 Error: absolute error vs Exp (hydration)
Outline: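 Solute decoupled from solvent in a 32×32×32 Å3 water box (PME, 9 Å cutoffs), electrostatics, exchange-repulsion and dispersion switched off together over 15 lambda points with soft-coring. Steepest-descent minimization, 50 ps equilibration, 1 ns NPT production at 1 atm; classical and path-integral MD. Free energy from BAR and TI.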

[7] = Free energy of hydration by Solvation Model Dielectric (SMD) implicit solvent model; details: absolute error vs Exp (hydration)
Outline: as §1

[8] = Table 5; free energy of hydration, GAFF prediction taken from literature; cited from earlier work
[9] = CHEX/H2O partition coefficient (log D) predicted with the QM-parameterized force field model (ARROW FF)
Outline: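 Cyclohexane/water partition coefficients were predicted by molecular simulation with a QM-parameterized force field, with bonded force constants and equilibrium values fitted to MP2/aug-cc-pVTZ energies. Solutes carried neutral functional groups, and results from four independent groups were averaged.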

[10] = Free energy of hydration by COSMO-RS
Outline: as §1

[11] = Table 3; free energy of solvation in cyclohexane, experimental; cited from earlier work
[12] = implicit solvent model, values received; cited from earlier work; remark: listed apart in the source
[13] = Table 5; free energy of hydration, AMOEBA prediction taken from literature; cited from earlier work
[14] = free energy of hydration, experimental, cited from earlier work; for water Exp (hydration): Table 3; for Exp (hydration): Table 5
[15] = Table 3; CHEX/H2O partition coefficient, experimental; cited from earlier work
[16] = Table 3, absolute error of MD log D vs experiment
[17] = Table 3, absolute error of PIMD log D vs experiment

| SMILES | PCM free energy of hydration [1] [kcal/mol] | COSMO/Molpro Error [2] [kcal/mol] | AMOEBA error [3] [kcal/mol] | PCM Error [4] [kcal/mol] | GAFF error [5] [kcal/mol] | water Arrow MD Error [6] [kcal/mol] | water Arrow PIMD8 Error [6] [kcal/mol] | Arrow error [6] [kcal/mol] | Arrow PIMD8 Error [6] [kcal/mol] | SMD Error [7] [kcal/mol] | GAFF [8] [kcal/mol] | log D Arrow MD Error [9] | log D Arrow PIMD Error [9] | COSMO-RS error [10] [kcal/mol] | CHEX Exp (solvation) [11] [kcal/mol] | SMD free energy of hydration [12] [kcal/mol] | AMOEBA [13] [kcal/mol] | water Exp (hydration) [14] [kcal/mol] | Exp (hydration) [14] [kcal/mol] | Exp (log D) [15] | other results |
| --- | --- | --- | --- | --- | --- | --- | --- | --- | --- | --- | --- | --- | --- | --- | --- | --- | --- | --- | --- | --- | --- |
| CCCCCCCC [Octane] | -0.30 | 3.74 | 1.14 | 3.19 | 0.25 | 1.27 | 0.06 | 0.04 | 0.06 | 0.19 | 3.13 | 0.50 | 0.20 | 0.10 | -5.63 | 2.70 | 1.74 | 2.89 | 2.88 | 6.25 |  |
| Oc1ccccc1 [Phenol] | -4.00 | 0.92 | 1.57 | 2.62 | 0.95 | 1.02 | 0.18 | 0.18 | 0.18 | 1.42 | -5.67 |  |  | 0.62 | -5.56 | -5.20 | -5.05 | -6.62 | -6.62 | −0.78 | log D Arrow MD Error [9, 16]: 0.65; log D Arrow PIMD Error [9, 17]: 0.21 |
| CCN [ethylamine] | -2.80 | 1.30 | 0.17 | 1.70 | 1.36 | 1.03 | 0.12 | 0.12 | 0.12 | 0.70 | -3.14 |  |  | 0.30 | -2.13 | -3.80 | -4.33 | -4.50 | -4.50 | −1.74 | log D Arrow MD Error [9, 16]: 0.69; log D Arrow PIMD Error [9, 17]: 0.08 |
| CN(C)C [trimethylamine] | -1.30 | 0.30 | 1.11 | 1.90 | 0.88 | 1.04 | 0.02 | 0.02 | 0.02 | 0.70 | -2.32 | 0.10 | 0.43 | 2.55 | -2.63 | -2.50 | -2.09 | -3.20 | -3.20 | −0.42 |  |
